Measurements as given in the supplement of paper PMC6004109.

How the values were obtained:
Conditions in all cases: temperature: 37 °C
[1] = tested on: Candida glabrata ZIM 2385 (RPMI); experiment: FICI minimum (fractional inhibitory concentration index, Loewe) (dimensionless); higher = less synergy / more antagonism
Protocol: (§1)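 CLSI M27-A3 checkerboard broth microdilution of an immunomodulatory drug (or amoxicillin) combined with an antifungal against S. cerevisiae and C. glabrata isolates. Growth was read as OD600 after incubation at 37 °C (48 h for the reported MICs). Reported quantities are the FICI (Loewe: MIC50 for azoles and immunomodulators, MIC90 for AMB; ≤0.5 synergy, ≥4 antagonism), as minimum and maximum over the surface, and the Bliss-independence sum of statistically significant ΔE (positive = synergy). Clinical isolates were tested in RPMI; C. glabrata ATCC 2001 and its pdr1Δ mutant were tested in YPD.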

[2] = tested on: Saccharomyces cerevisiae ZIM 2558 (RPMI); experiment: as above
Protocol: as §1

[3] = tested on: Candida glabrata ZIM 2344 (RPMI); experiment: FICI maximum (fractional inhibitory concentration index, Loewe) (dimensionless); higher = less synergy / more antagonism
Protocol: as §1

[4] = tested on: Candida glabrata ZIM 2365 (RPMI); experiment: as above
Protocol: as §1

[5] = tested on: Candida glabrata ZIM 2369 (RPMI); experiment: as above
Protocol: as §1

[6] = tested on: Candida glabrata ZIM 2382 (RPMI); experiment: as above
Protocol: as §1

[7] = tested on: Candida glabrata ZIM 2385 (RPMI); experiment: as above
Protocol: as §1

[8] = tested on: Candida glabrata ZIM 2389 (RPMI); experiment: as above
Protocol: as §1

[9] = tested on: Saccharomyces cerevisiae ZIM 2247 (RPMI); experiment: as above
Protocol: as §1

[10] = tested on: Saccharomyces cerevisiae ZIM 2255 (RPMI); experiment: as above
Protocol: as §1

[11] = tested on: Saccharomyces cerevisiae ZIM 2260 (RPMI); experiment: as above
Protocol: as §1

[12] = tested on: Saccharomyces cerevisiae ZIM 2269 (RPMI); experiment: as above
Protocol: as §1

[13] = tested on: Saccharomyces cerevisiae ZIM 2558 (RPMI); experiment: as above
Protocol: as §1

[14] = tested on: Saccharomyces cerevisiae ZIM 2566 (RPMI); experiment: as above
Protocol: as §1

[15] = tested on: Candida glabrata ZIM 2344 (RPMI); experiment: Bliss independence sum of statistically significant ΔE (measured minus predicted growth inhibition) over checkerboard surface (fraction (sum of ΔE; 1 = 100%)); higher = more synergy
[16] = tested on: Candida glabrata ZIM 2365 (RPMI); experiment: as above
[17] = tested on: Candida glabrata ZIM 2369 (RPMI); experiment: as above
[18] = tested on: Candida glabrata ZIM 2382 (RPMI); experiment: as above
[19] = tested on: Candida glabrata ZIM 2385 (RPMI); experiment: as above
[20] = tested on: Candida glabrata ZIM 2389 (RPMI); experiment: as above
[21] = tested on: Saccharomyces cerevisiae ZIM 2247 (RPMI); experiment: as above
[22] = tested on: Saccharomyces cerevisiae ZIM 2255 (RPMI); experiment: as above
[23] = tested on: Saccharomyces cerevisiae ZIM 2260 (RPMI); experiment: as above
[24] = tested on: Saccharomyces cerevisiae ZIM 2269 (RPMI); experiment: as above
[25] = tested on: Saccharomyces cerevisiae ZIM 2558 (RPMI); experiment: as above
[26] = tested on: Saccharomyces cerevisiae ZIM 2566 (RPMI); experiment: as above

Structure (SMILES)	FICI minimum [1]	FICI minimum [2]	FICI maximum [3]	FICI maximum [4]	FICI maximum [5]	FICI maximum [6]	FICI maximum [7]	FICI maximum [8]	FICI maximum [9]	FICI maximum [10]	FICI maximum [11]	FICI maximum [12]	FICI maximum [13]	FICI maximum [14]	Bliss independence sum [15]	Bliss independence sum [16]	Bliss independence sum [17]	Bliss independence sum [18]	Bliss independence sum [19]	Bliss independence sum [20]	Bliss independence sum [21]	Bliss independence sum [22]	Bliss independence sum [23]	Bliss independence sum [24]	Bliss independence sum [25]	Bliss independence sum [26]
CN(Cc1cnc2nc(N)nc(N)c2n1)c1ccc(C(=O)N[C@@H](CCC(=O)O)C(=O)O)cc1 [methotrexate] + OC(Cn1cncn1)(Cn1cncn1)c1ccc(F)cc1F [fluconazole]	1	0.406	0.656	1.16	1.16	2.16	2.16	1.16	1.16	1.08	2	1.08	1.04	2.16	1.94	0.394	0.22	-1.36	-0.819	0.272	-0.857	-0.754	-0.0461	-1.86	8.35	-4.52
CN(Cc1cnc2nc(N)nc(N)c2n1)c1ccc(C(=O)N[C@@H](CCC(=O)O)C(=O)O)cc1 [methotrexate] + C[C@@H]1[C@H](O)[C@@H](C)/C=C/C=C/C=C/C=C/C=C/C=C/C=C/[C@H](O[C@@H]2O[C@H](C)[C@@H](O)[C@H](N)[C@@H]2O)C[C@@H]2O[C@](O)(C[C@@H](O)C[C@@H](O)[C@H](O)CC[C@@H](O)C[C@@H](O)CC(=O)O[C@H]1C)C[C@H](O)[C@H]2C(=O)O [amphotericin B]	2	1	1.08	1.16	1.16	1.16	2.16	1.16	1.16	1.5	1.16	1.16	2.16	1.16	1.26	-0.0967	0.0762	-0.569	-1.71	-2.52	-2.39	0.262	2	0.225	-1.12	-3.15
C=CC[C@@H]1/C=C(\C)C[C@H](C)C[C@H](OC)[C@H]2O[C@@](O)(C(=O)C(=O)N3CCCC[C@H]3C(=O)O[C@H](/C(C)=C/[C@@H]3CC[C@@H](O)[C@H](OC)C3)[C@H](C)[C@@H](O)CC1=O)[C@H](C)C[C@@H]2OC [tacrolimus] + OC(Cn1cncn1)(Cn1cncn1)c1ccc(F)cc1F [fluconazole]	1	0.135	0.5	1	1	0.5	1.01	1	1	1	1	1	1	1	4.23	2.21	1.98	1.68	5.34	8	8.81	2.75	6.04	8.35	1.84	0.935
C=CC[C@@H]1/C=C(\C)C[C@H](C)C[C@H](OC)[C@H]2O[C@@](O)(C(=O)C(=O)N3CCCC[C@H]3C(=O)O[C@H](/C(C)=C/[C@@H]3CC[C@@H](O)[C@H](OC)C3)[C@H](C)[C@@H](O)CC1=O)[C@H](C)C[C@@H]2OC [tacrolimus] + C[C@@H]1[C@H](O)[C@@H](C)/C=C/C=C/C=C/C=C/C=C/C=C/C=C/[C@H](O[C@@H]2O[C@H](C)[C@@H](O)[C@H](N)[C@@H]2O)C[C@@H]2O[C@](O)(C[C@@H](O)C[C@@H](O)[C@H](O)CC[C@@H](O)C[C@@H](O)CC(=O)O[C@H]1C)C[C@H](O)[C@H]2C(=O)O [amphotericin B]	0.281	0.252	1	0.51	1.25	1.01	1	1	0.126	0.508	0.5	0.501	0.501	0.625	7.88	2.51	4.67	0.265	7.14	0.693	20.9	11.4	9.87	19.1	9.97	8.22
COc1c(C)c2c(c(O)c1C/C=C(\C)CCC(=O)O)C(=O)OC2 [mycophenolic acid] + C[C@@H]1[C@H](O)[C@@H](C)/C=C/C=C/C=C/C=C/C=C/C=C/C=C/[C@H](O[C@@H]2O[C@H](C)[C@@H](O)[C@H](N)[C@@H]2O)C[C@@H]2O[C@](O)(C[C@@H](O)C[C@@H](O)[C@H](O)CC[C@@H](O)C[C@@H](O)CC(=O)O[C@H]1C)C[C@H](O)[C@H]2C(=O)O [amphotericin B]	0.5	0.375	1.06	1.02	1.12	1.06	1.06	1.01	1.53	1.25	1.04	1.25	1.03	1.07	4.74	6.59	0.709	1.76	2.79	4.37	-2.18	-0.43	3.32	6.09	3.61	-0.484
